Patent US20130281512A1, “AGENTS FOR TREATING DISORDERS INVOLVING MODULATION OF RYANODINE RECEPTORS” (LES LABORATOIRES SERVIER, priority 2012, published 2013)

How the values were obtained:
[1] = Metabolic stability in rat hepatic microsomes (Clint, predicted MF %); assay type: in vitro ADME
Method: Compound solubilization: Stock solutions were made in DMSO, and working solutions in water containing 1 mg/ml BSA.
Prediction of metabolic bioavailability: Metabolic bioavailability predictions (MF %) were based on in vitro metabolic stability measurements with hepatic microsomes assuming total absorption. Briefly, unchanged drugs were quantified by LC-MS-MS following incubation (10^−7M) with rat and human hepatic microsomes (0.33 mg protein/ml) after 0, 5, 15, 30 and 60 min of incubation in presence of NADPH (1 mM). Enzymatic reaction was stopped with methanol (v/v) and proteins were precipitated by centrifugation. The in vitro intrinsic clearances (Clint_mic) expressed as ml/min/g protein were the slope (after LN linearization) of the unchanged drug remaining concentration versus incubation time. In vitro Clint were then scaled up to in vivo whole body (vivoClint) using 0.045 mg prot/kg of liver and liver weight of 11 g for the rat and 1.2 kg for Man.

[2] = target: T1, RyR1 (Mus musculus, UniProt E9PZQ0); assay: Calstabin1 rebinding to RyR1 in isoproterenol treated mice; assay type: in vivo; conditions: isoproterenol 0.5 mg/kg/hr plus compound in osmotic pumps, five days; compared with 3.6 mM S36
T1 construct: RyR1 from aged (24 months) mice is oxidized, cysteine-nitrosylated, and depleted of calstabin1; host or cells: mice (in vivo)
T1 sequence (E9PZQ0 whole entry): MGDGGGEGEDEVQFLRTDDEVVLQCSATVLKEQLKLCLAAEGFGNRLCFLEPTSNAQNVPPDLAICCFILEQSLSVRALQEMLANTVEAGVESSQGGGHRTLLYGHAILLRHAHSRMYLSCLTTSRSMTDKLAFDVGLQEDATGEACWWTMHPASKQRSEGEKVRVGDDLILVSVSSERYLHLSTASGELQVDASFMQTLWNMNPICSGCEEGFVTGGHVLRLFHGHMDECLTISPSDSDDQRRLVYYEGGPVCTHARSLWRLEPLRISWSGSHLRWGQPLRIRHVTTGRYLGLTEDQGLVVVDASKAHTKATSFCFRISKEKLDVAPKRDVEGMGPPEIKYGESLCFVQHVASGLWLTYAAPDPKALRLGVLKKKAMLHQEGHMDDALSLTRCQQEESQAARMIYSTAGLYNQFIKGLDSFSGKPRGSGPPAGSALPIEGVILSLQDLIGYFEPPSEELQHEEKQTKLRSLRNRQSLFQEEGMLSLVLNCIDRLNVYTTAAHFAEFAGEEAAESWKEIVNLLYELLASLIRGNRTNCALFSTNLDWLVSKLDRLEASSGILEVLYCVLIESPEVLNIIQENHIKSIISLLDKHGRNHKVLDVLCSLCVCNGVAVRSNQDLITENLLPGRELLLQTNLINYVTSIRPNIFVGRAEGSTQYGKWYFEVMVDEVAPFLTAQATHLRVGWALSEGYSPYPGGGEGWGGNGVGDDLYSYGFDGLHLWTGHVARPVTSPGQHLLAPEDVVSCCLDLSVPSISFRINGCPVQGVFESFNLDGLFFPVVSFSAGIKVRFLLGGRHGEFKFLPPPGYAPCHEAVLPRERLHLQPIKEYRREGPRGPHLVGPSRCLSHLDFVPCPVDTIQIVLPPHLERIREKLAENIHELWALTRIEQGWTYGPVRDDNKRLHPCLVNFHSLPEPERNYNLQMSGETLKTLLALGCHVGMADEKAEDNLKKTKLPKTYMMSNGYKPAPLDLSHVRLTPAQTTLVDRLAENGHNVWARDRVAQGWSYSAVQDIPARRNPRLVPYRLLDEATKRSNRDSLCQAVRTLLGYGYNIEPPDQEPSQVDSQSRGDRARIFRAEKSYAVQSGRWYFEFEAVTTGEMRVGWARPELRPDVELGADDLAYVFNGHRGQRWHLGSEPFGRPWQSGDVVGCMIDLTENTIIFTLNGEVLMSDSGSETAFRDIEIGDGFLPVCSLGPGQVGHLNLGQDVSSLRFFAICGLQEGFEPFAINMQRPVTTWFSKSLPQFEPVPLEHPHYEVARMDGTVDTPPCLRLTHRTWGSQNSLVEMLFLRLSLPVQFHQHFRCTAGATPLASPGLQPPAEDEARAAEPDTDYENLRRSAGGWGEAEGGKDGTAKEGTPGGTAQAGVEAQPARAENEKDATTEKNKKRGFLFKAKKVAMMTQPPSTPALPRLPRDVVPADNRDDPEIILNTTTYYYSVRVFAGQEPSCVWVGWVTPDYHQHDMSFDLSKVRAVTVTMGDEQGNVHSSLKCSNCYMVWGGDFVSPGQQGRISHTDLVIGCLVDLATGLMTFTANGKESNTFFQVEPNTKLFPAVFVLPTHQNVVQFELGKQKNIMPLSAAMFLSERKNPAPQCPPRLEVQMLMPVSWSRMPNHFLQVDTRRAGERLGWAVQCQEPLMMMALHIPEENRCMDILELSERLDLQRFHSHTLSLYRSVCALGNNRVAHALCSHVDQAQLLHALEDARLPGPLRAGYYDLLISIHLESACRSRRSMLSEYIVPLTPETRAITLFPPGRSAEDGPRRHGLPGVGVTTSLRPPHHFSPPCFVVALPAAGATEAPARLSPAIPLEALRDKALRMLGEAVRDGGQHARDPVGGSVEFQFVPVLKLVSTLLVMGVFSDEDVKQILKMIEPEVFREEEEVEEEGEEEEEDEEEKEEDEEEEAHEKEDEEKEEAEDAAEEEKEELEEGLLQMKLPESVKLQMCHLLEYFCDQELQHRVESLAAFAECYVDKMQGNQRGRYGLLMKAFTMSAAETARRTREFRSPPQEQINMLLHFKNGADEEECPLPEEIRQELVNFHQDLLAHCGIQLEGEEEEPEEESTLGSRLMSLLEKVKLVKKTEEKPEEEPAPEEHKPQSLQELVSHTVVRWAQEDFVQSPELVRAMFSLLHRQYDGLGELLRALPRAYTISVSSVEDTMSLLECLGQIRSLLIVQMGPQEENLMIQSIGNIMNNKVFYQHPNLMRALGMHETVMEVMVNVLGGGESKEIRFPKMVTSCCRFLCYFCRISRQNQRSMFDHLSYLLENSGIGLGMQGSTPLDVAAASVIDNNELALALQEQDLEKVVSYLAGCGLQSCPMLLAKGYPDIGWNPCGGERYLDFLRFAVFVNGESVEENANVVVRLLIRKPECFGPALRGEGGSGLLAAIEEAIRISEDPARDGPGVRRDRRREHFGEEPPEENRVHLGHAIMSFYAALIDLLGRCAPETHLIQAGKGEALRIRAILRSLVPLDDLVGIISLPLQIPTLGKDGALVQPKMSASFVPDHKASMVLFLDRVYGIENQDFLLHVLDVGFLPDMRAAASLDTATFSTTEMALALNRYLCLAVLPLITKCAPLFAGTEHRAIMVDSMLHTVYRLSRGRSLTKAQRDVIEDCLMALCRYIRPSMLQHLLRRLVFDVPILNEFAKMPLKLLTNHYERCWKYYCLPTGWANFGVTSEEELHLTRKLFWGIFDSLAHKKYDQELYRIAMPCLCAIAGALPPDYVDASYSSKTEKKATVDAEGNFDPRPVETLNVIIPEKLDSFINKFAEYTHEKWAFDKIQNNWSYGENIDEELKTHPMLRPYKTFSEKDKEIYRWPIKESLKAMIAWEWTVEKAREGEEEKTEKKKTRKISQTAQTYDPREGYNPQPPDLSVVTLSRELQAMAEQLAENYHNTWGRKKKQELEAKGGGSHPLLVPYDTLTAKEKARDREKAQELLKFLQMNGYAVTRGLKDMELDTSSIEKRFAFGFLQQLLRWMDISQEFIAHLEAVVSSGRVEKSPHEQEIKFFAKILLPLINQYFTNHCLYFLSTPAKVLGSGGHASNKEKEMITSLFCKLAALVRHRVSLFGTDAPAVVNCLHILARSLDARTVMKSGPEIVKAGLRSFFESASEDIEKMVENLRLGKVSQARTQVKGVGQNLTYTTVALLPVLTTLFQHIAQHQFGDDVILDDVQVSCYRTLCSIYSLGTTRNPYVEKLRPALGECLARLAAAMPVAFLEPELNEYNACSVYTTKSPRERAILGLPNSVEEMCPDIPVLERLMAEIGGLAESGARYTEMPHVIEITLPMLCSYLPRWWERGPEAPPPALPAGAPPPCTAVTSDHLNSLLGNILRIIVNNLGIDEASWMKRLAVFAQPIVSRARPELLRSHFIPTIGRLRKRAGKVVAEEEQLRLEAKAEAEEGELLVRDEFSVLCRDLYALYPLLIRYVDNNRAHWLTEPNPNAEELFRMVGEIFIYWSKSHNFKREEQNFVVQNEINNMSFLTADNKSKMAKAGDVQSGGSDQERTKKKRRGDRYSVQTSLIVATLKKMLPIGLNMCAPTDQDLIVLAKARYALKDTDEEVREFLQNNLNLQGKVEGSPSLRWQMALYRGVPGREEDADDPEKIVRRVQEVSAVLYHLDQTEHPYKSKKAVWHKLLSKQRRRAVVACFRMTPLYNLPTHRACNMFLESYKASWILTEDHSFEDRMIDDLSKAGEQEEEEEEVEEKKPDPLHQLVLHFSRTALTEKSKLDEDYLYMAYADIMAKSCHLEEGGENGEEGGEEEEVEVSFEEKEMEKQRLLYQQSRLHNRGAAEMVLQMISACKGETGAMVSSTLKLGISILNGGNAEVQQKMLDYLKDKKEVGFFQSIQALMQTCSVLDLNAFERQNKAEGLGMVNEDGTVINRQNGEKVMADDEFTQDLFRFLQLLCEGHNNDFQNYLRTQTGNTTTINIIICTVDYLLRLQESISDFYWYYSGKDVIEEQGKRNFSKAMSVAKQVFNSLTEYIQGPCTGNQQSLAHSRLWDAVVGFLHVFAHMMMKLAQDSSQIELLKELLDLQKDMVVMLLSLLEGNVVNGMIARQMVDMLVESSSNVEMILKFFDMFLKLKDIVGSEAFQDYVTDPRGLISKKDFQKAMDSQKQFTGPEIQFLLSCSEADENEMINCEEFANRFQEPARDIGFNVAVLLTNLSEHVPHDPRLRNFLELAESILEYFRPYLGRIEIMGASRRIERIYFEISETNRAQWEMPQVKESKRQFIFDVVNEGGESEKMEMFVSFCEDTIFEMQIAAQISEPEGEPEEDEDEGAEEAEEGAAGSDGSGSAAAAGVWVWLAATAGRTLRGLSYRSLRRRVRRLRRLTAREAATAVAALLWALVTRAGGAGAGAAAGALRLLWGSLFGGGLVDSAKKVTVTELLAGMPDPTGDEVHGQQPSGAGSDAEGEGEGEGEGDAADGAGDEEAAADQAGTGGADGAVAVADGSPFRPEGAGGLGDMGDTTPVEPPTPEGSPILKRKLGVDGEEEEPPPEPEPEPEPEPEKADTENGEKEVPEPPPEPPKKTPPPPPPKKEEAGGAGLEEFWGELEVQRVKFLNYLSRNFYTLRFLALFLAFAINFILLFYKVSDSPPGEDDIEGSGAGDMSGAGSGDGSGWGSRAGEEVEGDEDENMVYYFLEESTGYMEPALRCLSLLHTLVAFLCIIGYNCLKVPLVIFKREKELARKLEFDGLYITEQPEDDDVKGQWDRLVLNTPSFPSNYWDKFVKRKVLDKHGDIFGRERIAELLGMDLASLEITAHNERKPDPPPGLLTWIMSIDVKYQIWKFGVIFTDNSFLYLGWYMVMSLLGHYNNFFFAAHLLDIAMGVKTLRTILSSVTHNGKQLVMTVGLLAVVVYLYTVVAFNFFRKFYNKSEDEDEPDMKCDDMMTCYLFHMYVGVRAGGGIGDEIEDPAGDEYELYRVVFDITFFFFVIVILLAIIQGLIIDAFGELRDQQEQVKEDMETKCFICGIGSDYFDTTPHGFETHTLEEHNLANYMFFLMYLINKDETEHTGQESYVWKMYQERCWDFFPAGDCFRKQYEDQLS
T1 sequence (P26883 2-108 partner limits assumed): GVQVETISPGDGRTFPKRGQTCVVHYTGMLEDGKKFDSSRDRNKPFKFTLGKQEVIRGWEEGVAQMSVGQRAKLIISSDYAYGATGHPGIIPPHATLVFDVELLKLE
Source text: Isoproterenol, a beta adrenergic receptor agonist, induces heart failure in mice via overstimulation of the beta adrenergic receptor. Concurrent with this is the activation of PKA, phosphorylation of the RyR2 on the SR, and decreased interaction of calstabin2 (FKBP12.6) to RyR2. A similar cascade of events occurs in skeletal muscle, wherein RyR1 is phosphorylated, leading to decreased binding of calstabin1 (FKBP12) to RyR1.
As described in detail in International publication no. WO2008/064264, the contents of which are incorporated by reference herein, chronic isoproterenol treatment to a wild-type mouse offers a fast and reliable method for inducing changes in RyR biochemistry that could be readily quantified. These changes include increased RyR phosphorylation and concomitant decreased calstabin binding.
C57Bl/6 mice were maintained and studied according to approved protocols. The synthetic beta-adrenergic agonist, isoproterenol (ISO) was obtained from Sigma (165627) and prepared as a 100 mg/ml stock in water. […]
The loaded osmotic pumps were implanted subcutaneously by the following steps. The recipient mouse was anesthetized with 1.5-2% isoflurane in O2 administered at 0.6 L/min, and its weight was then measured and recorded. […]

SMILES: COc1ccc2c(c1)CN(Cc1ccc(C(=O)O)cc1)CCS2 [Compound 1, 4-((7-Methoxy-2,3-dihydrobenzo[f][1,4]thiazepin-4(5H)-yl)methyl)benzoic acid]
- Class (metabolic bioavailability) [1]: Inter- mediate
- Clint_mic rat (in vitro intrinsic clearance) ([1]; 10^-7 M, 0.33 mg protein/ml, NADPH): 101 ml/min/gprot
- MF mic % (metabolic bioavailability) ([1]; predicted from Clint assuming total absorption): 30%
- levels of calstabin1 bound to RyR1 in skeletal muscle [2]: enhanced levels of calstabin1 bound to RyR1
